Measurements as given in patent US11484708B2, “Methods and devices for surgical pre-treatment” (Vomaris Innovations, Inc., priority 2014, dated 2022).

Key:
HUVEC cells [1] = test: EF-induced reorientation of endothelial cells (orientation index Oi); format: cell-based, human
Protocol: HUVEC cells were seeded in a trough formed by two parallel (1 cm apart) strips of glass coverslip (No. 1, length of 22 mm) fixed to the base of the dish with silicone grease. Scratch lines were made perpendicular to the long axis of the chamber with a fine sterile needle and used as reference marks for directed cell migration. Cells were incubated for 24-48 hours (37° C., 5% CO2) before a roof coverslip was applied and sealed with silicone grease. The final dimensions of the chamber, through which current was passed, were 22×10×0.2 mm. Agar-salt bridges not less than 15 cm long were used to connect silver/silver-chloride electrodes in beakers of Steinberg's solution (58 mM NaCl, 0.67 mM KCl, 0.44 mM Ca(NO3)2, 1.3 mM MgSO4, 4.6 mM Trizma base, pH 7.8-8.0), to pools of excess culture medium at either side of the chamber. Field strengths were measured directly at the beginning of, the end of and during each experiment. […] (50 μM), the Rho kinase inhibitor Y27632 (50 μM), both Akt and Rho kinase inhibitors (10 μM each) or latrunculin (50 nM) for 1 hour before EF stimulation. The same concentration of drug was present during EF exposure in a CO2 incubator.
A series of images was taken with an image analyser immediately before EF exposure and at 4, 8 and 24 hours of EF exposure. Cell orientation was quantified as an orientation index (Oi), which is defined as Oi=cos2(α), where α is the angle formed by the long axis of a cell with a line drawn perpendicular to the field lines. A cell with its long axis parallel to the vector of the EF will have an Oi of −1, and a cell with its long axis exactly perpendicular to the EF vector will have an Oi of +1. […] The significance of this two-dimensional orientation distribution against randomness was calculated using Rayleigh's distribution. A long:short axis ratio was calculated for assessment of elongation.

HUVEC cells [2] = test: EF-induced elongation of endothelial cells (long:short axis ratio); format: cell-based, human; settings: for long:short axis ratio in EF-treated cells: inhibitor 50 μM, vs control
Protocol: Tissue culture reagents were obtained from Life Technologies UK. […] Rhodamine-phalloidin (E3478) was obtained from Molecular Probes (Leiden, The Netherlands) and anti-tubulin conjugated with FITC was obtained from Sigma. The HUVEC cell line from ATCC was used prior to passage 10. Dulbecco's modified Eagle's medium (DMEM) with 10% fetal bovine serum (FBS) was used for culture cells and EF exposure experiments.
HUVEC cells were seeded in a trough formed by two parallel (1 cm apart) strips of glass coverslip (No. 1, length of 22 mm) fixed to the base of the dish with silicone grease. Scratch lines were made perpendicular to the long axis of the chamber with a fine sterile needle and used as reference marks for directed cell migration. Cells were incubated for 24-48 hours (37° C., 5% CO2) before a roof coverslip was applied and sealed with silicone grease. The final dimensions of the chamber, through which current was passed, were 22×10×0.2 mm. Agar-salt bridges not less than 15 cm long were used to connect silver/silver-chloride electrodes in beakers of Steinberg's solution (58 mM NaCl, 0.67 mM KCl, 0.44 mM Ca(NO3)2, 1.3 mM MgSO4, 4.6 mM Trizma base, pH 7.8-8.0), to pools of excess culture medium at either side of the chamber. Field strengths were measured directly at the beginning of, the end of and during each experiment. No fluctuations in field strength were observed. […] (50 μM), the Rho kinase inhibitor Y27632 (50 μM), both Akt and Rho kinase inhibitors (10 μM each) or latrunculin (50 nM) for 1 hour before EF stimulation. […]
A series of images was taken with an image analyser immediately before EF exposure and at 4, 8 and 24 hours of EF exposure. Cell orientation was quantified as an orientation index (Oi), which is defined as Oi=cos2(α), where α is the angle formed by the long axis of a cell with a line drawn perpendicular to the field lines. […] The significance of this two-dimensional orientation distribution against randomness was calculated using Rayleigh's distribution. A long:short axis ratio was calculated for assessment of elongation.

Human keratinocytes = test: in vitro scratch assay (cell migration); format: cell-based
Excerpt: The in vitro scratch assay is an easy, low-cost and well-developed method to measure cell migration in vitro. The basic steps involve creating a “scratch” in a cell monolayer, capturing images at the beginning and at regular intervals during cell migration to close the scratch, and comparing the images to quantify the migration rate of the cells. Compared to other methods, the in vitro scratch assay is particularly suitable for studies on the effects of cell-matrix and cell-cell interactions on cell migration, mimic cell migration during wound healing in vivo and are compatible with imaging of live cells during migration to monitor intracellular events if desired. In addition to monitoring migration of homogenous cell populations, this method has also been adopted to measure migration of individual cells in the leading edge of the scratch.
Human keratinocytes were plated under plated under placebo or a LLEC system described herein (labeled “PROCELLERA®”). Cells were also plated under silver-only or zinc-only dressings. After 24 hours, the scratch assay was performed.
Cell culture—Immortalized HaCaT human keratinocytes were grown in Dulbecco's low-glucose modified Eagle's medium (Life Technologies, Gaithersburg, Md., U.S.A.) supplemented with 10% fetal bovine serum, 100 U/ml penicillin, and 100 μg/ml streptomycin. The cells were maintained in a standard culture incubator with humidified air containing 5% CO2 at 37° C.
Scratch assay—A cell migration assay was performed using culture inserts (IBIDI®, Verona, Wis.) according to the manufacturer's instructions. Cell migration was measured using time-lapse phase-contrast microscopy following withdrawal of the insert. Images were analyzed using the AxioVision Rel 4.8 software.
N-Acetyl Cysteine Treatment—Cells were pretreated with 5 mM of the thiol antioxidant N-acetylcysteine (Sigma) for 1 h before start of the scratch assay.
IGF-1 R inhibition—When applicable, cells were preincubated with 50 nM IGF-1 R inhibitor, picropodophyllin (Calbiochem, Mass.) just prior to the Scratch Assay. […]

[3] = inhibitor 50 μM, 1 hour before and during EF

Compound: 1-L-6-hydroxymethyl-chiro-inositol 2-[(R)-2-O-methyl-3-O-octadecylcarbonate] [Akt inhibitor]
- orientation response of cells in an EF (HUVEC cells [1]; [3]): significantly decreased the orientation response
- long:short axis ratio in EF-treated cells (HUVEC cells [2]): significantly decreased the long:short axis ratio

Compound: COc1cc([C@@H]2c3cc4c(cc3[C@H](O)[C@H]3COC(=O)[C@@H]23)OCO4)cc(OC)c1OC [IGF-1 R inhibitor, picropodophyllin]
- increased keratinocyte migration observed with LLEC, in presence of IGF-1 R inhibitor (Human keratinocytes; 50 nM picropodophyllin just prior to scratch assay): attenuated the increased keratinocyte migration

Compound: C/C1=C/C(=O)O[C@@H]2C[C@@H](CC[C@H](C)/C=C\C=C\CC1)O[C@@](O)([C@@H]1CSC(=O)N1)C2 [Latrunculin A]
- orientation response of cells in an EF (HUVEC cells [1]; latrunculin 50 nM, P<0.001): suppressed the orientation response significantly
- EF-induced elongation response (HUVEC cells [2]; latrunculin 50 nM): completely abolished the EF-induced elongation response

Compound: CC(=O)N[C@@H](CS)C(=O)O [N-Acetyl Cysteine, N-acetylcysteine]
- increased keratinocyte migration observed with LLEC, in presence of N-acetyl cysteine (Human keratinocytes; 5 mM, 1 h pretreatment before scratch assay): failed to reproduce the increased migration

Compound: COc1cc2ncnc(Nc3ccc(Cl)cc3F)c2cc1OC [VEGFR inhibitor, 4-[(4′-chloro-2′-fluoro)phenylamino]-6,7-dimethoxyquinazoline]
- orientation response of cells in an EF (HUVEC cells [1]; [3]): completely abolished the reorientation of cells in an EF

Compound: C[C@@H](N)[C@H]1CC[C@H](C(=O)Nc2ccncc2)CC1 [Y27632]
- long:short axis ratio in EF-treated cells (HUVEC cells [2]): significantly decreased the long:short axis ratio

Compound: catalase
- increased migration triggered by the LLEC, with over-expression of catalase (Human keratinocytes; HaCaT transfected with AdCatalase, 72 h): attenuated the increased migration
